In brackets after ≈: the same amount, converted by molar mass. Residues, ends and D or L forms follow the SMILES beside them.

A short description of data set [1]: Solubility of IN-derived peptides in PBS. Type of data set: physicochemical. The note with it: for Solubility: at 0 min, verified at 60 min, LC-MS. As to the method: (§1) Analytic HPLC-MS was performed using an Agilent 1260 series Liquid Chromatography/Mass Selective Detector (MSD) equipped with an electrospray interface and a UV diode array detector. Analyses were performed on an ACE C8, 50 × 3.0 mm, 3 µm column, with an isocratic 0.1% formic acid/ACN eluent, at a rate of 1 ml/min over a period of 5 min. UV absorption was measured at 280 nm, 220 nm, and 215–395 nm. MS analysis was performed with ESI (electron spray ionization) with a positive ionization method.
(§2) Four reaction systems were prepared; INS and INR2 in human plasma, INS and INR2 in rat plasma (Supplementary Table 2). Freshly prepared 10 mg/ml stock solution of the peptides was injected into plasma or PBS solution (1:1). The mixture was diluted with methanol to precipitate the plasma proteins. The samples were filtered through PTFE 0.45 µm filters and run in LC-MS. Samples were taken at the following times: 0, 15, 30, 60, 120, 240, and 480 min and after 24 h.
(§3) Plasma solubility was determined at 0 min and was verified at 60 min (if no degradation was observed).

Data set [2] in a line: Solubility of IN-derived peptides in rat plasma. Type of data set: physicochemical. The note with it: LC-MS. The procedure: as §1, §2, §3
Data set [3] is described as follows: Solubility of IN-derived peptides in human plasma. Type of data set: physicochemical. The note with it: LC-MS. The procedure: as §1, §2, §3
The subject of the next data set is H1975 lung cancer cells. Briefly: Cytotoxicity of peptides without lentiviral particles, MTT. Type of data set: cell-based, human. Particulars: peptide alone, three times over ten days. The procedure:
H1975 lung cancer cells were treated three times over the course of 10 days (on days 2, 4, and 7) with different concentrations of the tested peptides. Following ten days of incubation, cells were analyzed for potential toxicity using a quantitative cell viability test, the MTT assay.

For data set [4], the system named is Lymphocytes of healthy volunteers. Briefly: Cytotoxicity of peptides, WST-1. Type of data set: cell-based, human. The note with it: peptide alone. The procedure: Written informed consent was obtained from all eligible participants prior to entry into the study. Approval for this study was provided by Kaplan Medical Center’s Ethics Committee (Protocol No. ZMS1/2016). Lymphocytes of healthy volunteers were isolated from the peripheral blood by Ficoll-Paque density gradient centrifugation. Cells were incubated in DMEM with different peptide concentrations for 72 h. Then, 100 µl of cells were taken for toxicity testing using a quantitative cell viability test, the WST-1 assay.

In the next data set the test system is SD rats. Briefly: 28-day repeated dose toxicity study. The data set is classed as in vivo, rat. Particulars: slow IV bolus twice weekly for 4 weeks, 4 weeks recovery; male and female SD rats; highest dose tested. As to the method:
Four weeks of repeated dosing followed by four weeks of recovery was performed in female and male SD rats, via slow IV bolus of the INS peptide. Eighty rats (40 males and 40 females) were utilized for the main study groups (n = 10 per study group). An additional 40 animals (20 males and 20 females) were used as recovery groups (n = 5 per study group). Group allocation was done without investigator blinding. Study evaluations included: mortality and morbidity, body weight, food consumption, clinical signs, ophthalmological observation, blood collection for hematology, clinical chemistry, coagulation, urine analysis, necropsy, and gross pathology, organ weight, and histopathology. The study was approved by the Institutional Review Board of Tel Aviv Sourasky Medical Center.

[5] abbreviates: from 5 mg/mL sample (10 mg/ml stock into plasma 1:1), at 0 min, verified at 60 min, methanol precipitation, PTFE 0.45 µm filtration.

Take `CC[C@H](C)[C@H](NC(=O)[C@H](Cc1ccccc1)NC(=O)[C@@H](NC(=O)[C@H](C)NC(=O)[C@H](CCSC)NC(=O)[C@H](CCC(N)=O)NC(=O)[C@@H](NC(=O)[C@H](C)NC(=O)[C@@H](NC(=O)[C@@H](N)Cc1c[nH]c2ccccc12)[C@@H](C)O)C(C)C)C(C)C)C(=O)N[C@@H](Cc1c[nH]cn1)C(=O)N[C@@H](CC(N)=O)C(=O)N[C@@H](Cc1ccccc1)C(=O)N[C@@H](CCCCN)C(=O)N[C@@H](CCCNC(=N)N)C(=O)N[C@@H](CCCCN)C(=O)O` [INS] (H-WTAVQMAVFIHNFKRK-OH): the Solubility came to 89.2% in data set [1] (% of 5 mg/mL sample); 4.46 mg/mL (≈ 2260 µM) in data set [1] (from 5 mg/mL sample (10 mg/ml stock into PBS 1:1), methanol dilution, PTFE 0.45 µm filtration); 80.2% in data set [2] (% of 5 mg/mL sample); 4.01 mg/mL (≈ 2030 µM) in data set [2] (setting [5]); 62% in data set [3] (% of 5 mg/mL sample); 3.1 mg/mL (≈ 1570 µM) in data set [3] (setting [5]). For the same compound, in data set [1] (rat and human plasma), the “Solubility (in words)” value is on record as “highly soluble”. The “Effect on lung cancer cell viability” value in the data set on H1975 lung cancer cells was “no effect”. In data set [4], the “Viability of primary lymphocytes” value is “not affected”. Also, the “no-observed-adverse-effect level (NOAEL)” value in the data set on SD rats is listed as 7.5 mg/kg.

(Values after publication PMC8175240, “Integrase-derived peptides together with CD24-targeted lentiviral particles inhibit the growth of CD24 expressing cancer cells” (Oncogene, 2021).)
